One experiment has as its target T1, human CCK-B R (Homo sapiens, UniProt P32239).
T1 construct: expressed in transfected cells
T1 sequence (P32239 1-447): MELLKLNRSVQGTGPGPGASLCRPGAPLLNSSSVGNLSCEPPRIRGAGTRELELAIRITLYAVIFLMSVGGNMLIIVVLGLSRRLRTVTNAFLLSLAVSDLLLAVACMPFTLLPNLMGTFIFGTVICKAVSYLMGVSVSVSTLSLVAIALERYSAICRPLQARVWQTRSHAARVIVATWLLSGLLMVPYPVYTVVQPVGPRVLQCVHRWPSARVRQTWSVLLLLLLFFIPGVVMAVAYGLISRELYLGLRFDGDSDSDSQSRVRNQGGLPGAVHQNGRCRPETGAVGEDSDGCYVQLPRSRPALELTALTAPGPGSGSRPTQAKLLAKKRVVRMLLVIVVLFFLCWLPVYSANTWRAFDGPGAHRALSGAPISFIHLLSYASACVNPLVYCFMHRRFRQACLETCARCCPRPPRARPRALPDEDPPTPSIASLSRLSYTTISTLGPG
Put plainly: Human CCK-B receptor efficacy assay (AlphaScreen SureFire p-ERK). Format: cell-based. Particulars: Table 2; read-out: hCCK-B R EC50.

Another experiment deals with T2, human GLP-1 R (Homo sapiens, UniProt P43220).
T2 construct: expressed in transfected cells
T2 sequence (P43220 24-463): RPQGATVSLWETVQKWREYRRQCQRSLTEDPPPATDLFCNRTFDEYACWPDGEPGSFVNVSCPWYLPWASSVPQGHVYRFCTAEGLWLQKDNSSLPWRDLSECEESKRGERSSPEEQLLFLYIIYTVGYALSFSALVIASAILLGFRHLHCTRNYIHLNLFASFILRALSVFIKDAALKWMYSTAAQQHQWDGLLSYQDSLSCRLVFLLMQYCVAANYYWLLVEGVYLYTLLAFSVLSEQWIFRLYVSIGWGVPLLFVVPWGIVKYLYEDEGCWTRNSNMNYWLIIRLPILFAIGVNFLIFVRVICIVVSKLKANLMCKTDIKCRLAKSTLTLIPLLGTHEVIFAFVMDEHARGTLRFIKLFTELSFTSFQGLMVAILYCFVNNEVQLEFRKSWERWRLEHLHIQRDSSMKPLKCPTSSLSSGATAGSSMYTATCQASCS
Put plainly: Human GLP-1 receptor efficacy assay (cAMP induction, FlashPlate). Format: cell-based. Particulars: Table 2; read-out: hGLP-1 R EC50. Here is the method: On the day of analysis, growth medium was removed and the cells were washed once with 200 μl Tyrode buffer [Tyrode's Salts (9.6 g/l), 10 mM HEPES, pH 7.4]. […] The reaction was stopped by addition of 25 μl 0.5 M HCl and incubated on ice for 60 min.

Drawing on patent publication US10406207B2, “Peptide conjugates of GLP-1 receptor agonists and gastrin and their use” (priority 2010, dated 2019), this text covers EC50 for 5 compounds.

Square brackets hold non-standard residues; d marks the D form. Peptide text beside a SMILES is read from it. Orn = NCCC[C@H](N)C(=O)O; AEEA = NCCOCCOCC(=O)O

For the compound `CC[C@H](C)[C@H](NC(=O)[C@H](Cc1ccccc1)NC(=O)[C@H](CC(C)C)NC(=O)[C@H](CCCCN)NC(=O)[C@@H](NC(=O)[C@H](C)NC(=O)[C@H](CCC(=O)O)NC(=O)[C@H](CCC(=O)O)NC(=O)[C@H](CCC(=O)O)NC(=O)[C@H](CC(C)C)NC(=O)[C@H](Cc1ccc(O)cc1)NC(=O)[C@H](CCCNC(=N)N)NC(=O)[C@H](CO)NC(=O)[C@H](CC(C)C)NC(=O)[C@H](CC(=O)O)NC(=O)[C@H](CO)NC(=O)[C@@H](NC(=O)[C@H](Cc1ccccc1)NC(=O)[C@@H](NC(=O)CNC(=O)[C@H](CCC(=O)O)NC(=O)CNC(=O)[C@@H](N)Cc1c[nH]cn1)[C@@H](C)O)[C@@H](C)O)C(C)C)C(=O)N[C@@H](CCC(=O)O)C(=O)N[C@@H](Cc1ccccc1)C(=O)N[C@@H](CC(C)C)C(=O)N[C@@H](CCCNC(=N)N)C(=O)NCCOCCOCC(=O)N[C@@H](Cc1ccc(O)cc1)C(=O)NCC(=O)N[C@@H](Cc1c[nH]c2ccccc12)C(=O)N[C@@H](CC(C)C)C(=O)N[C@@H](CC(=O)O)C(=O)N[C@@H](Cc1ccccc1)C(N)=O` [Compound 93, [Arg12,27,Leu14,Lys20,Phe25,Tyr13]Exendin-4(1-27)-Peg3-[Leu4]Gastrin6] (H-HGEGTFTSDLSRYLEEEAVKLFIEFLR[AEEA]YGWLDF-NH2), the values for the concentration for a half-maximal effect (EC50) at human CCK-B R and on human GLP-1 R were 26 nM and 0.058 nM, respectively.

For `CC[C@H](C)[C@H](NC(=O)[C@H](Cc1ccccc1)NC(=O)[C@H](CC(C)C)NC(=O)[C@H](CCCNC(=N)N)NC(=O)[C@@H](NC(=O)[C@H](C)NC(=O)[C@H](CCC(=O)O)NC(=O)[C@H](CCC(=O)O)NC(=O)[C@H](CCC(=O)O)NC(=O)[C@H](CC(C)C)NC(=O)[C@H](Cc1ccc(O)cc1)NC(=O)[C@H](CCCNC(=N)N)NC(=O)[C@H](CO)NC(=O)[C@H](CC(C)C)NC(=O)[C@H](CC(=O)O)NC(=O)[C@H](CO)NC(=O)[C@@H](NC(=O)[C@H](Cc1ccccc1)NC(=O)[C@@H](NC(=O)CNC(=O)[C@H](CCC(=O)O)NC(=O)CNC(=O)[C@@H](N)Cc1c[nH]cn1)[C@@H](C)O)[C@@H](C)O)C(C)C)C(=O)N[C@@H](CCCCN)C(=O)N[C@@H](Cc1ccccc1)C(=O)N[C@@H](CC(C)C)C(=O)N[C@@H](CCCNC(=N)N)C(=O)NCCOCCOCC(=O)N[C@@H](Cc1ccc(O)cc1)C(=O)NCC(=O)N[C@@H](Cc1c[nH]c2ccccc12)C(=O)N[C@@H](CC(C)C)C(=O)N[C@@H](CC(=O)O)C(=O)N[C@@H](Cc1ccccc1)C(N)=O` [Compound 94, [Arg12,27,Leu14,Lys24,Phe25,Tyr13]Exendin-4(1-27)-Peg3-[Leu4]Gastrin6] (H-HGEGTFTSDLSRYLEEEAVRLFIKFLR[AEEA]YGWLDF-NH2), the EC50 stood at 36 nM at human CCK-B R and 0.13 nM on human GLP-1 R.

Turning to `CC[C@H](C)[C@H](NC(=O)[C@H](Cc1ccccc1)NC(=O)[C@H](CC(C)C)NC(=O)[C@H](CCCNC(=N)N)NC(=O)[C@@H](NC(=O)[C@H](C)NC(=O)[C@H](CCC(=O)O)NC(=O)[C@H](CCC(=O)O)NC(=O)[C@H](CCC(=O)O)NC(=O)[C@H](CC(C)C)NC(=O)[C@H](Cc1ccc(O)cc1)NC(=O)[C@H](CCCNC(=N)N)NC(=O)[C@H](CO)NC(=O)[C@H](CC(C)C)NC(=O)[C@H](CC(=O)O)NC(=O)[C@H](CO)NC(=O)[C@@H](NC(=O)[C@H](Cc1ccccc1)NC(=O)[C@@H](NC(=O)CNC(=O)[C@H](CCC(=O)O)NC(=O)CNC(=O)[C@@H](N)Cc1c[nH]cn1)[C@@H](C)O)[C@@H](C)O)C(C)C)C(=O)N[C@@H](CCC(=O)O)C(=O)N[C@@H](Cc1ccccc1)C(=O)N[C@@H](CC(C)C)C(=O)N[C@@H](CCCCN)C(=O)NCCOCCOCC(=O)N[C@@H](Cc1ccc(O)cc1)C(=O)NCC(=O)N[C@@H](Cc1c[nH]c2ccccc12)C(=O)N[C@@H](CC(C)C)C(=O)N[C@@H](CC(=O)O)C(=O)N[C@@H](Cc1ccccc1)C(N)=O` [Compound 95, [Arg12,Leu14,Phe25,Tyr13]Exendin-4(1-27)-Peg3-[Leu4]Gastrin6] (H-HGEGTFTSDLSRYLEEEAVRLFIEFLK[AEEA]YGWLDF-NH2), the concentration for a half-maximal effect (EC50) on human CCK-B R stood at 14 nM; at human GLP-1 R, 0.079 nM.

As to `CC[C@H](C)[C@H](NC(=O)[C@H](Cc1ccccc1)NC(=O)[C@H](CC(C)C)NC(=O)[C@H](CCCNC(=N)N)NC(=O)[C@@H](NC(=O)[C@H](C)NC(=O)[C@H](CCC(=O)O)NC(=O)[C@H](CCC(=O)O)NC(=O)[C@H](CCC(=O)O)NC(=O)[C@H](CC(C)C)NC(=O)[C@H](Cc1ccc(O)cc1)NC(=O)[C@H](CCCCN)NC(=O)[C@H](CO)NC(=O)[C@H](CC(C)C)NC(=O)[C@H](CCC(=O)O)NC(=O)[C@H](CO)NC(=O)[C@@H](NC(=O)[C@H](Cc1ccccc1)NC(=O)[C@@H](NC(=O)CNC(=O)[C@H](CCC(=O)O)NC(=O)CNC(=O)[C@@H](N)Cc1c[nH]cn1)[C@@H](C)O)[C@@H](C)O)C(C)C)C(=O)N[C@@H](CCC(=O)O)C(=O)N[C@@H](Cc1ccccc1)C(=O)N[C@@H](CC(C)C)C(=O)N[C@@H](CCCCN)C(=O)NCCOCCOCC(=O)N[C@@H](Cc1c[nH]c2ccccc12)C(=O)N[C@@H](CC(C)C)C(=O)N[C@@H](CC(=O)O)C(=O)N[C@@H](Cc1ccccc1)C(N)=O` [Compound 97, [Glu9,Leu14,Phe25,Tyr13]Exendin-4(1-27)-Peg3-[Leu2]Gastrin4] (H-HGEGTFTSELSKYLEEEAVRLFIEFLK[AEEA]WLDF-NH2), the EC50 was 13 nM on human CCK-B R and 0.06 nM at human GLP-1 R.

As for `CC[C@H](C)[C@H](NC(=O)[C@H](Cc1ccccc1)NC(=O)[C@H](CC(C)C)NC(=O)[C@H](CCCNC(=N)N)NC(=O)[C@@H](NC(=O)[C@H](C)NC(=O)[C@H](CCC(=O)O)NC(=O)[C@H](CCC(=O)O)NC(=O)[C@H](CCC(=O)O)NC(=O)[C@H](CC(C)C)NC(=O)[C@H](Cc1ccc(O)cc1)NC(=O)[C@H](CCCCN)NC(=O)[C@H](CO)NC(=O)[C@H](CC(C)C)NC(=O)[C@H](CCC(=O)O)NC(=O)[C@H](CO)NC(=O)[C@@H](NC(=O)[C@H](Cc1ccccc1)NC(=O)[C@@H](NC(=O)CNC(=O)[C@H](CCC(=O)O)NC(=O)CNC(=O)[C@@H](N)Cc1c[nH]cn1)[C@@H](C)O)[C@@H](C)O)C(C)C)C(=O)N[C@@H](CCC(=O)O)C(=O)N[C@@H](Cc1ccccc1)C(=O)N[C@@H](CC(C)C)C(=O)N[C@@H](CCCCN)C(=O)N[C@@H](CCCN)C(=O)NCCOCCOCC(=O)N[C@@H](Cc1c[nH]c2ccccc12)C(=O)N[C@@H](CC(C)C)C(=O)N[C@@H](CC(=O)O)C(=O)N[C@@H](Cc1ccccc1)C(N)=O` [Compound 98, [Glu9,Leu14,Phe25,Tyr13]Exendin-4(1-27)-Orn-Peg3-[Leu2]Gastrin4] (H-HGEGTFTSELSKYLEEEAVRLFIEFLK[Orn][AEEA]WLDF-NH2), the results for the EC50 on human CCK-B R and at human GLP-1 R were 10 nM and 0.046 nM, respectively.
